Measurements reported in patent publication US20120315256A1, “USE OF TRANSFORMING GROWTH FACTOR - BETA 1 (TGF-B1) INHIBITOR PEPTIDES FOR THE TREATMENT OF CORNEAL FIBROSIS AND/OR HAZE” (DIGNA BIOTECH, S.I., priority 2010, published 2012).
“Also recorded” adds a separate entry of the source.

Columns and labels:
Long-Evans rats = assay: Corneal damage with 1 N NaOH in rats: weekly follow-up of corneal haze and epithelial closure (photographs, ImageJ); type: in vivo, rat; details: for chemical lesions induced after corneal damage with 1N NaOH: after treatment, different experimentation groups; for corneal haze, significance treated at the fifth week vs. treated at day 0 / epithelial closure, significance treated at the fifth week vs. treated at day 0: fifth week vs day 0; for corneal haze, significance control vs. peptide / epithelial closure, significance control vs. peptide: Student's t-test; for corneal haze / epithelial closure: treated eye vs control eye, topical eye drops, fifth formulation, 1 N NaOH damage; for epithelial closure: fluorescein
Description: In this study, domestic hens (Gallus gallus domesticus) aged between 12 and 16 months were initially used as experimental animals but due to the difficulty of the model, especially in relation to obtaining and handling the animals, it was decided to use Long-Evans rats. Furthermore, it was bibliographically verified that these animals are used for in vivo models for studying corneal fibrosis because they allow to follow the evolution of the damage with more precision since they are pigmented rats and, like humans, have a Bowman's membrane.
Male Long-Evans rats aged 10 weeks were used, divided into 5 groups: • Group 1: 12 rats, 6 treated with dexamethasone and 6 treated with mitomycin C. • Group 2: 12 rats, 6 treated with p17 of the first formulation (see section 1.1.2.b) and 6 treated with p144 of the first formulation (see section 1.1.2.b). • Group 3: 12 rats, 6 treated with p17 of the second formulation (see section 1.1.2.b) and 6 treated with p144 of the second formulation (see section 1.1.2.b). • Group 4: 12 rats, 6 treated with p17 of the third formulation (see section 1.1.2.b) and 6 treated with p144 of the third formulation (see section 1.1.2.b). • Group 5: 12 rats, 6 treated with p17 of the fourth formulation (see section 1.1.2.b) and 6 treated with p144 of the fourth formulation (see section 1.1.2.b). • Group 6: 12 rats, 6 treated with p17 of the fifth formulation (see section 1.1.2.b) and 6 treated with p144 of the fifth formulation (see section 1.1.2.b).
To perform the damage in the cornea, the animals were anesthetized with isoflurane and a 5 mm Whatman paper disc impregnated in 1 N NaOH for 30 seconds was applied to them in the central part of the eye. After the damage, they were washed with abundant physiological saline serum and an antibiotic ointment was applied to them to prevent possible infections in the affected area.
After conducting several in vivo studies with the previously described groups of animals, it could be concluded that the chemical damage occurring after the application of NaOH for 30 seconds caused an excessive lesion for the study which was to be conducted, therefore, it was decided to conduct new experiments reducing the time to 15 seconds.
It was randomly established that the left eye of each animal would act as a control and that the right eye would be the treated eye, such that the same animals acts as a control in addition to being treated. It must be pointed out that all the animals received antibiotic treatment in both eyes daily only during the first week of the study for the purposes of avoiding microbial keratitis.
Starting from 0.15% sodium hyaluronate (Hyabak 10 mL, Thea) without preservatives: • p144: 20 mg were dissolved in 5 ml of eye drops, […] of saturated concentrated NaOH were incorporated, stirring and adding in portions of 5 μl. It was sonicated until solubilization. To adjust the pH, 500 μl of 1M HEPES (4-(2-hydroxyethyl)-1-piperazineethanesulfonic acid) were added, such that the pH changed from 10.5 to 7 • p144 control: 40 μl of saturated NaOH and 500 μl of 1 M HEPES (final concentration of HEPES 50 mM) • p17: 20 mg were dissolved in 5 ml of the eye drops, it was sonicated until complete solubilization and it was incorporated to the vial with a 10 ml syringe and a blue needle to perforate the filter of the contained (final concentration 2 mg/ml) • p17 control: non-manipulated eye drops • Note: The formulations were maintained at 4° C. throughout the study.
Therefore, all the results shown in relation to in vivo will refer to this type of treatment.
The administration of the treatment was initiated twenty-four hours after the damage. After that time a follow-up of the damage was performed, which consisted of taking photographs at days 0, 7, 14, 21, 28 and 35. To take the photographs the animals were anesthetized with isoflurane. Photographs were taken of both the control eye (left) and of the treated eye (right) with and without fluorescein. […]

Smad 2/3 = assay: Western Blot against Smad2/3 in rabbit corneal fibroblasts; type: cell-based; details: primary culture; peptide 50 and 200 μg/ml
Procedure: (§1) Therefore, Western Blot and immunofluorescence studies were conducted to determine, from cells extracted from the in vivo studies, the signaling pathway used by the peptides administered topically. It should be emphasized that said studies were conducted on fibroblasts from rabbit cornea and not from rat cornea. This decision was made due to the difficulty entailed in isolating fibroblasts from rodent eyes.
(§2) Since the scientific literature repeatedly describes the TGF-β1 signaling pathways, the decision was made to go into depth in such pathways by means of the techniques described in the methodology section. Said pathways involve the study of the Smad protein family, specifically the study of the isoforms Smad2, 2/3 and 7.
(§3) To that end, protein extracts obtained from the primary culture of rabbit fibroblasts were treated with TGF-β1 at concentrations of 0, 3 and 5 ng/ml and, 50 and 200 μg/ml of peptide p17 and p144.

p-Smad2 [1] = assay: Western Blot against p-Smad2 in TGF-β1-treated primary culture of rabbit corneal fibroblasts; type: cell-based; details: for inhibition of the expression of p-Smad2: TGF-β1 treated
Procedure: as §1, §2, §3

Smad 7 = assay: Western Blot against Smad7 in rabbit corneal fibroblasts treated with TGF-β; type: cell-based; details: primary culture; peptide 50 and 200 μg/ml
Procedure: as §1, §2, §3

p-Smad2 [2] = assay: Immunofluorescence for p-Smad2 on rabbit corneal fibroblasts; type: cell-based; details: TGF-β1 treated fibroblasts
Procedure: as §1

| Compound | clinical efficacy of drugs usually used in the treatment of corneal fibrosis (Long-Evans rats; first experiment, Group 1) | expression of Smad 2/3 (Smad 2/3) | chemical lesions induced after corneal damage with 1N NaOH (Long-Evans rats) | corneal haze, significance treated at the fifth week vs. treated at day 0 (Long-Evans rats) | epithelial closure, significance treated at the fifth week vs. treated at day 0 (Long-Evans rats) | corneal haze, significance control vs. peptide (Long-Evans rats; fifth week) | epithelial closure, significance control vs. peptide (Long-Evans rats; fifth week) | epithelial closure, significance control vs. peptide (Long-Evans rats; fourth week) | corneal haze, significance control vs. peptide (Long-Evans rats; second and fourth week) | corneal haze (Long-Evans rats) | epithelial closure (Long-Evans rats) | inhibition of the expression of p-Smad2 (p-Smad2 [1]; peptide 50 μg/ml) | inhibition of the expression of p-Smad2 (p-Smad2 [1]; peptide 200 μg/ml) | expression of Smad 7 (Smad 7) | translocation of p-Smad2 to the nucleus (p-Smad2 [2]) | effect on the signaling cascade of TGF-β1 (p-Smad2 [1]; primary culture of rabbit corneal fibroblasts, Smad2, Smad2/3, Smad7) |
| --- | --- | --- | --- | --- | --- | --- | --- | --- | --- | --- | --- | --- | --- | --- | --- | --- |
| CO[C@@]12[C@H](COC(N)=O)C3=C(C(=O)C(C)=C(N)C3=O)N1C[C@@H]1N[C@@H]12 [mitomycin C, reference compound] | correspond to those described in the scientific literature |  |  |  |  |  |  |  |  |  |  |  |  |  |  |  |
| TSLDASIIWAMMQN (TGF-beta 1 inhibitor peptide) [p144] |  | not affected; also recorded: not modified | decreases significantly | highly significant | highly significant | highly significant | highly significant | significant | significant | clear decrease; also recorded: significantly reversed | clear decrease; also recorded: significantly reversed | slight inhibition; also recorded: inhibiting the phosphorylation of Smad2 | reaching the values of the controls; also recorded: inhibiting the phosphorylation of Smad2 | not modified | inhibited |  |
| KRIWFIPRSSWYERA (TGF-beta 1 inhibitor peptide) [p17] |  | not affected; also recorded: not modified | decreases significantly | highly significant | highly significant | highly significant | very significant |  |  | clear decrease; also recorded: significantly reversed | clear decrease; also recorded: significantly reversed |  |  | not modified | did not inhibit | does not have any effect |
